13 compounds from DBAASP can be followed below.

≈ marks a conversion by molar mass, not a printed value.

Some test systems named below: Pseudomonas aeruginosa; Bacillus subtilis 168; Staphylococcus aureus; Escherichia coli B; Bacillus subtilis; Escherichia coli; Escherichia coli JW0013.
What all share (assay): ≥ marks a high value that may be exact or a test limit, other limits are often not marked, values filed in µg/mL are converted to µM
Test [1] deals with Candida albicans F7-39/IDE99.
The test system of test [2] is Escherichia coli ATCC 25922.
The test system of test [3] is Bacillus subtilis ATCC 23857.
Test [4] has as its system Staphylococcus aureus ATCC 6538.
The subject of test [5] is Pseudomonas aeruginosa ATCC 9027.
The test system of test [6] is Staphylococcus aureus ATCC 25923.
In test [7] the test system is Klebsiella pneumoniae ATCC 700603.
In test [8] the test system is Staphylococcus epidermidis ATCC 12228.
The test system of test [9] is Micrococcus luteus ATCC 9341.

The term MIC denotes the lowest concentration that inhibits growth of the organism. With `CSCC[C@H](NC(=O)CNC(=O)[C@H](Cc1ccccc1)NC(=O)[C@H](C)N)C(=O)N[C@@H](C)C(=O)N[C@@H](CC(C)C)C(=O)N[C@@H](CCCCN)C(=O)N[C@@H](CC(C)C)C(=O)N[C@@H](CC(C)C)C(=O)N[C@@H](CCCCN)C(=O)N[C@@H](CCCCN)C(=O)N[C@H](C(=O)N[C@@H](CC(C)C)C(N)=O)C(C)C` [AFGMALKLLKKVL], the MIC in the test on Pseudomonas aeruginosa came to 38.3 µM (≈ 54.8 µg/mL); against Bacillus subtilis 168, 1.3 µM (≈ 1.86 µg/mL); in the test with Staphylococcus aureus it was 4.7 µM (≈ 6.73 µg/mL); with Escherichia coli B it was 4.7 µM (≈ 6.73 µg/mL); in [1], 10 µM (≈ 14.3 µg/mL).

As for `CC[C@H](C)[C@H](NC(=O)CN)C(=O)N[C@H](C(=O)N[C@@H](C)C(=O)NCC(=O)N[C@H](C(=O)N[C@H](C(=O)N[C@H](C(=O)N[C@@H](CCCCN)C(=O)N[C@H](C(=O)N[C@@H](CCCCN)C(=O)N[C@@H](C)C(N)=O)[C@@H](C)CC)[C@@H](C)CC)[C@@H](C)CC)[C@@H](C)CC)[C@@H](C)CC` [GIIAGIIIKIKA], the MIC in test [2] is above 128 µM; in test [3], at least 128 µM.

As for `CC[C@H](C)[C@H](NC(=O)[C@H](CCCCN)NC(=O)[C@H](CCCCN)NC(=O)[C@@H](NC(=O)[C@@H](NC(=O)[C@H](CCCCN)NC(=O)[C@H](CCCCN)NC(=O)[C@@H](NC(=O)[C@@H](NC(=O)[C@H](CCCCN)NC(=O)[C@H](CCCCN)NC(=O)[C@@H](NC(=O)[C@@H](NC(=O)CN)[C@@H](C)CC)C(C)C)[C@@H](C)CC)C(C)C)[C@@H](C)CC)C(C)C)C(N)=O` [GIVKKIVKKIVKKI], the MIC in test [2] was determined as 22 µM (≈ 35 µg/mL); in test [3], 1.7 µM (≈ 2.71 µg/mL); in [4], 128 µM (≈ 204 µg/mL); in test [5] it was 21 µM (≈ 33.5 µg/mL).

In the case of `CC[C@H](C)[C@H](NC(=O)[C@H](C)NC(=O)[C@H](C)NC(=O)[C@H](CC(C)C)NC(=O)[C@@H](NC(=O)[C@H](CCCCN)NC(=O)[C@H](CCCNC(=N)N)NC(=O)[C@@H]1CCCN1C(=O)[C@H](CC(C)C)NC(=O)CN)[C@@H](C)CC)C(=O)N[C@@H](C)C(=O)N[C@@H](CCCCN)C(=O)N[C@@H](CCCCN)C(=O)N[C@@H](CCCCN)C(=O)NCC(=O)N[C@@H](CCCCN)C(=O)N[C@H]1CSSC[C@@H](C(=O)O)NC(=O)[C@H](CCCCN)NC(=O)[C@H](C)NC(=O)[C@H](C(C)C)NC(=O)[C@H](CC(C)C)NC(=O)[C@H](CCCCN)NC(=O)[C@H](CC(C)C)NC(=O)[C@@H]2CCCN2C(=O)CNC(=O)[C@H](CCCCN)NC1=O` [GLPRKILAAIAKKKGKCKGPLKLVAKC], the MIC against Pseudomonas aeruginosa was above 100 µM; against Staphylococcus aureus, above 100 µM; against Escherichia coli B it was at least 100 µM; against Bacillus subtilis, 4.2 µM (≈ 11.9 µg/mL); in test [1], at least 50 µM.

As to `CC[C@H](C)[C@H](NC(=O)[C@H](CCCCN)NC(=O)[C@H](CCCCN)NC(=O)[C@H](C)NC(=O)[C@@H](NC(=O)[C@H](C)NC(=O)[C@H](CC(C)C)NC(=O)[C@H](CC(C)C)NC(=O)[C@H](C)NC(=O)[C@H](CCCCN)NC(=O)[C@H](CC(C)C)NC(=O)[C@H](CC(N)=O)NC(=O)CN)C(C)C)C(=O)N[C@@H](CC(C)C)C(N)=O` [GNLKALLAVAKKIL], the MIC in the test on Escherichia coli came to 8 µM (≈ 11.6 µg/mL); in test [3] it was 4 µM (≈ 5.8 µg/mL); in test [6], 32 µM (≈ 46.4 µg/mL); in [7], 16 µM (≈ 23.2 µg/mL).

Turning to `CC[C@H](C)[C@H](N)C(=O)N[C@@H](CC(C)C)C(=O)NCC(=O)N[C@H](C(=O)N[C@H](C(=O)N[C@@H](CC(C)C)C(=O)NCC(=O)N[C@@H](CC(C)C)C(=O)N[C@@H](CC(C)C)C(=O)N[C@@H](CCCCN)C(=O)N[C@@H](C)C(=O)N[C@@H](CC(C)C)C(N)=O)[C@@H](C)CC)[C@@H](C)O` [ILGTILGLLKAL], the MIC turned out to be 64 µM (≈ 78.3 µg/mL) in test [2], 8 µM (≈ 9.79 µg/mL) in [3], 16 µM (≈ 19.6 µg/mL) in test [8] and 16 µM (≈ 19.6 µg/mL) in [6].

As to `CC[C@H](C)[C@H](N)C(=O)N[C@@H](CC(C)C)C(=O)N1CCC[C@H]1C(=O)N[C@@H](Cc1cnc[nH]1)C(=O)N[C@@H](CCCCN)C(=O)N[C@@H](Cc1cnc[nH]1)C(=O)N1CCC[C@H]1C(=O)N[C@@H](Cc1cnc[nH]1)C(=O)N[C@@H](Cc1cnc[nH]1)C(=O)N1CCC[C@H]1C(=O)N[C@@H](Cc1cnc[nH]1)C(=O)N[C@@H](CCCN=C(N)N)C(=O)N[C@@H](CCCN=C(N)N)C(N)=O` [ILPHKHPHHPHRR], the MIC in test [9] was at least 100 µM.

As for `CC[C@H](C)[C@H](NC(=O)[C@H](CCCN=C(N)N)NC(=O)[C@H](CCCN=C(N)N)NC(=O)[C@@H]1CCCN1C(=O)[C@@H]1CCCN1C(=O)[C@H](CCCN=C(N)N)NC(=O)[C@H](CCCN=C(N)N)NC(=O)[C@H](CCCN=C(N)N)NC(=O)[C@@H]1CCCN1C(=O)[C@H](CC(C)C)NC(=O)[C@H](CCCN=C(N)N)NC(=O)[C@@H]1CCCN1C(=O)[C@H](CCCCN)NC(=O)[C@H](CCCCN)NC(=O)[C@H](CC(=O)O)NC(=O)[C@@H](N)C(C)C)C(=O)N[C@@H](Cc1ccc(O)cc1)C(=O)N[C@@H](CC(N)=O)C(=O)N[C@@H](CCCN=C(N)N)C(N)=O` [VDKKPRLPRRRPPRRIYNR], the MIC in the test on Escherichia coli JW0013 is 0.687 µM (≈ 1.7 µg/mL).

As to `CC[C@H](C)[C@H](NC(=O)[C@H](CCCN=C(N)N)NC(=O)[C@H](CCCN=C(N)N)NC(=O)[C@@H]1CCCN1C(=O)[C@@H]1CCCN1C(=O)[C@H](CCCN=C(N)N)NC(=O)[C@H](CCCN=C(N)N)NC(=O)[C@H](CCCN=C(N)N)NC(=O)[C@@H]1CCCN1C(=O)[C@H](CCCCN)NC(=O)[C@H](Cc1ccc(O)cc1)NC(=O)[C@@H]1CCCN1C(=O)[C@H](CCCCN)NC(=O)[C@H](CCCCN)NC(=O)[C@H](CC(=O)O)NC(=O)[C@@H](N)C(C)C)C(=O)N[C@@H](Cc1ccc(O)cc1)C(=O)N[C@@H](CC(N)=O)C(=O)N[C@@H](CCCN=C(N)N)C(N)=O` [VDKKPYKPRRRPPRRIYNR], in the test with Escherichia coli JW0013, the minimum inhibitory concentration (MIC) is 0.481 µM (≈ 1.2 µg/mL).

For the compound `CC[C@H](C)[C@H](NC(=O)[C@H](CCCN=C(N)N)NC(=O)[C@H](CCCN=C(N)N)NC(=O)[C@@H]1CCCN1C(=O)[C@@H]1CCCN1C(=O)[C@H](CCCN=C(N)N)NC(=O)[C@H](CCCN=C(N)N)NC(=O)[C@H](CCCN=C(N)N)NC(=O)[C@@H]1CCCN1C(=O)[C@H](CC(C)C)NC(=O)[C@H](Cc1ccc(O)cc1)NC(=O)[C@H](Cc1cnc[nH]1)NC(=O)[C@H](CCCN=C(N)N)NC(=O)[C@H](CCCCN)NC(=O)[C@H](CC(=O)O)NC(=O)[C@@H](N)C(C)C)C(=O)N[C@@H](Cc1ccc(O)cc1)C(=O)N[C@@H](CC(N)=O)C(=O)N[C@@H](CCCN=C(N)N)C(N)=O` [VDKRHYLPRRRPPRRIYNR], the MIC in the test on Escherichia coli JW0013 amounted to 0.628 µM (≈ 1.6 µg/mL).

In the test on Escherichia coli JW0013, `CC[C@H](C)[C@H](NC(=O)[C@H](CCCN=C(N)N)NC(=O)[C@H](CCCN=C(N)N)NC(=O)[C@@H]1CCCN1C(=O)[C@@H]1CCCN1C(=O)[C@H](CCCN=C(N)N)NC(=O)[C@@H]1CCCN1C(=O)[C@H](CCCN=C(N)N)NC(=O)[C@@H]1CCCN1C(=O)[C@H](CCCCN)NC(=O)[C@H](CCCN=C(N)N)NC(=O)[C@@H]1CCCN1C(=O)[C@H](CCCN=C(N)N)NC(=O)[C@H](CCCCN)NC(=O)[C@H](CC(=O)O)NC(=O)[C@@H](N)C(C)C)C(=O)N[C@@H](Cc1ccc(O)cc1)C(=O)N[C@@H](CC(N)=O)C(=O)N[C@@H](CCCN=C(N)N)C(N)=O` [VDKRPRKPRPRPPRRIYNR] registered an MIC of 1.34 µM (≈ 3.3 µg/mL).

`CC[C@H](C)[C@H](NC(=O)[C@H](CCCN=C(N)N)NC(=O)[C@H](CCCN=C(N)N)NC(=O)[C@@H]1CCCN1C(=O)[C@@H]1CCCN1C(=O)[C@H](CCCN=C(N)N)NC(=O)[C@H](CCCCN)NC(=O)[C@H](CCCN=C(N)N)NC(=O)[C@@H]1CCCN1C(=O)[C@H](CCCCN)NC(=O)[C@H](Cc1ccc(O)cc1)NC(=O)[C@@H]1CCCN1C(=O)[C@H](CCCN=C(N)N)NC(=O)[C@H](CCCCN)NC(=O)[C@H](CC(=O)O)NC(=O)[C@@H](N)C(C)C)C(=O)N[C@@H](Cc1ccc(O)cc1)C(=O)N[C@@H](CC(N)=O)C(=O)N[C@@H](CCCN=C(N)N)C(N)=O` [VDKRPYKPRKRPPRRIYNR] showed an MIC in the test with Escherichia coli JW0013 of 1.24 µM (≈ 3.1 µg/mL).

In the test with Escherichia coli JW0013, `CC[C@H](C)[C@H](NC(=O)[C@H](CCCN=C(N)N)NC(=O)[C@H](CCCN=C(N)N)NC(=O)[C@@H]1CCCN1C(=O)[C@@H]1CCCN1C(=O)[C@H](CCCN=C(N)N)NC(=O)[C@@H]1CCCN1C(=O)[C@H](CCCN=C(N)N)NC(=O)[C@@H]1CCCN1C(=O)[C@H](CC(C)C)NC(=O)[C@H](Cc1ccc(O)cc1)NC(=O)[C@@H]1CCCN1C(=O)[C@@H]1CCCN1C(=O)[C@H](CCCCN)NC(=O)[C@H](Cc1ccccc1)NC(=O)[C@@H](N)C(C)C)C(=O)N[C@@H](Cc1ccc(O)cc1)C(=O)N[C@@H](CC(N)=O)C(=O)N[C@@H](CCCN=C(N)N)C(N)=O` [VFKPPYLPRPRPPRRIYNR] gave an MIC of 1.98 µM (≈ 4.8 µg/mL).
